Results published in patent US6992169B2, “Carrier based drug delivery system” (Cyclacel Limited, priority 1998, dated 2006).

System: HaCaT cells
Experiment: In vitro cytotoxic activity, inhibition of cell proliferation, ATP bioluminescence (ViaLight)
Assay type: cell-based, human
Conditions: Table 1, HaCaT
Protocol: This compound (abbreviated ‘MTX-Pen’ in the tables below) was evaluated for its ability to inhibit cell proliferation of normal (immortalised) human cells (HaCaT cells, Tables 1 & 2) and a human colorectal cancer cell line (HT29, Table 3).
Assay procedure—Cells were seeded into 96-well plates at 2,500 cells/well in DMEM with 10% FCS and antibiotics. After overnight incubation, test compound dilutions in cell medium were prepared and were added to the cells. Samples were taken 1, 2, 3, and 4 days after compound addition. Nucleotide Releasing Reagent (LumiTech ViaLight kit) was added in order to lyse the cells and release ATP. After incubation at room temperature (5 min), the mixtures were transferred to opaque 96-well plates and stored at −20° C. until analysis. After loading plates into a luminometer (Lucy 1, Labtech International), ATP Monitoring Reagent (20 μL/well, LumiTech ViaLight kit) was added to each well successively and light intensity was measured immediately. Six readings were taken per sample. Each assay point was established using six replicates and appropriate controls. […] Statistically significant results in the tables below are printed in bold face.
This compound (abbreviated ‘MTX-Pen’ in tables below) was evaluated for its ability to inhibit cell proliferation of normal (immortalised) human cells (HaCaT cells, Tables 1 & 2) and a human colorectal cancer cell line (HT29, Table 3).
Assay procedure—Cells were seeded into 96-well plates at 2,500 cells/well in DMEM with 10% foetal calf serum and antibiotics. After overnight incubation, test compound dilutions in cell medium were prepared and were added to the cells. Samples were taken 1, 2, 3, and 4 days after compound addition. Nucleotide Releasing Reagent (LumiTech ViaLight kit) was added in order to lyse the cells and release ATP. After incubation at room temperature (5 min), the mixtures were transferred to opaque 96-well plates and stored at −20° C. until analysis. After loading plates into a luminometer (Lucy 1, Labtech International), ATP Monitoring Reagent ([…], LumiTech ViaLight kit) was added to each well successively and light intensity was measured immediately. Six readings were taken per sample. Each assay point was established using six replicates and appropriate controls.

Question: How did the “% Cell Death” value (Dose 0.2 μM, Day 1) turn out when “H-Ala-Arg-Gln-Ile-Lys-Ile-Trp-Phe-Gln-Asn-Arg-Arg-Met-Lys-Trp-Lys-Lys-OH (H-ARQIKIWFQNRRMKWKK-OH) [Pen, the free vector]” was run?
Answer: 26%

Question: And the “% Cell Death” value (Dose 0.2 μM, Day 2)?
Answer: 0%

Question: What about the “% Cell Death” value (Dose 0.2 μM, Day 3) of the same substance?
Answer: −3%

Question: And the “% Cell Death” value (Dose 0.2 μM, Day 4)?
Answer: 21%

Question: What about the “% Cell Death” value (Dose 0.5 μM, Day 1) of the same substance?
Answer: 6%

Question: What about the “% Cell Death” value (Dose 0.5 μM, Day 2) of the same substance?
Answer: −6%

Question: What about the “% Cell Death” value (Dose 0.5 μM, Day 3) of the same substance?
Answer: −29%

Question: What about the “% Cell Death” value (Dose 0.5 μM, Day 4) of the same substance?
Answer: −26%

Question: And the “% Cell Death” value (Dose 1.5 μM, Day 1)?
Answer: 16%

Question: What about the “% Cell Death” value (Dose 1.5 μM, Day 2) of the same substance?
Answer: −31%

Question: And the “% Cell Death” value (Dose 1.5 μM, Day 3)?
Answer: 2%

Question: What about the “% Cell Death” value (Dose 1.5 μM, Day 4) of the same substance?
Answer: −14%

Question: What about the “% Cell Death” value (Dose 4.4 μM, Day 1) of the same substance?
Answer: 8%

Question: What about the “% Cell Death” value (Dose 4.4 μM, Day 2) of the same substance?
Answer: −4%

Question: And the “% Cell Death” value (Dose 4.4 μM, Day 3)?
Answer: −1%

Question: What about the “% Cell Death” value (Dose 4.4 μM, Day 4) of the same substance?
Answer: 10%

Question: And the “% Cell Death” value (Dose 13.3 μM, Day 1)?
Answer: 18%

Question: And the “% Cell Death” value (Dose 13.3 μM, Day 2)?
Answer: 0%

Question: And the “% Cell Death” value (Dose 13.3 μM, Day 3)?
Answer: −17%

Question: What about the “% Cell Death” value (Dose 13.3 μM, Day 4) of the same substance?
Answer: −6%

Question: And the “% Cell Death” value (Dose 40.0 μM, Day 1)?
Answer: 16%

Question: What about the “% Cell Death” value (Dose 40.0 μM, Day 2) of the same substance?
Answer: −22%

Question: And the “% Cell Death” value (Dose 40.0 μM, Day 3)?
Answer: 5%

Question: And the “% Cell Death” value (Dose 40.0 μM, Day 4)?
Answer: 12%
